According to patent publication US8293768B2, “Organic compounds” (Novartis AG, priority 2006, dated 2012):
pIC50: −log10 of the molar value.

Key:
[1] = biological target: T1, stearoyl-CoA desaturase (SCD1) (Mus musculus, UniProt P13516); test: SCD microsomal assay: release of 3H2O from [9,10-3H]stearoyl-CoA in mouse liver microsomes; format: biochemical; conditions: 15 min incubation at 25° C.
T1 construct: Reactions are started by adding 50 μL of microsomes (1.25 mg/mL); from tissue; host or cells: liver microsomes of male ICR outbred mice on a high-carbohydrate, low fat diet
T1 sequence (P13516 1-355): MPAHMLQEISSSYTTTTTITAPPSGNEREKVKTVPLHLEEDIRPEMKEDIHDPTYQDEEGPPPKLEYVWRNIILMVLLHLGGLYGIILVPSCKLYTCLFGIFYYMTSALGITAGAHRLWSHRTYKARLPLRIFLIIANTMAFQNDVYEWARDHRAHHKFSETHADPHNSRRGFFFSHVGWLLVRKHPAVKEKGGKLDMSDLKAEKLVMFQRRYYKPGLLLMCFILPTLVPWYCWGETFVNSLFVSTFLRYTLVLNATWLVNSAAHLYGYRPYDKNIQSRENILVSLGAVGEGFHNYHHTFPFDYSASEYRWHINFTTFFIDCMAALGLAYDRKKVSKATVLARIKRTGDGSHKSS
Source text: The identification of compounds of the invention as SCD inhibitors was readily accomplished using the SCD enzyme and microsomal assay procedure described in Shanklin J. and Summerville C., Proc. Natl. Acad. Sci. USA (1991), Vol. 88, pp. 2510-2514.
Measuring Stearoyl-CoA Desaturase Inhibition Activity of a Test Compound Using Mouse Liver Microsomes
The identification of compounds of the invention as SCD inhibitors was readily accomplished using the SCD microsomal assay procedure described in Shanklin J. and Summerville C., Proc. Natl. Acad. Sci. USA (1991), Vol. 88, pp. 2510-2514.
Male ICR outbread mice, on a high-carbohydrate, low fat diet, under light halothane (15% in mineral oil) anesthesia are sacrificed by exsanguination during periods of high enzyme activity. Livers are immediately rinsed with cold 0.9% NaCl solution, weighed and minced with scissors. All procedures are performed at 4° C. unless specified otherwise. Livers are homogenized in a solution (1/3 w/v) containing 0.25 M sucrose, 62 mM potassium phosphate buffer (pH 7.0), 0.15 M KCl, 15 mM N-acetyleysteine, 5 mM MgCl2, and 0.1 mM EDTA using 4 strokes of a Potter-Elvehjem tissue homogenizer. The homogenate is centrifuged at 10,400×g for 20 min to eliminate mitochondria and cellular debris. The supernatant is filtered through a 3-layer cheesecloth and centrifuged at 105,000×g for 60 min. The microsomal pellet is gently resuspended in the same homogenization solution with a small glass/teflon homogenizer and stored at −70° C. The absence of mitochondrial contamination is enzymatically assessed. The protein concentration is measured using bovine serum albumin as the standard.
Desaturase activity is measured as the release of ^3H2O from [9,10-^3H]stearoyl-CoA. Reactions per assay point conditions are as follows: 2 μL 1.5 mM stearoyl-CoA, 0.25 μL 1 mCi/mL ^3H stearoyl CoA, 10 μL 20 mM NADH, 36.75 μL 0.1 M PK buffer (K2HPO4/NaH2PO4, pH 7.2). The test compound or control solution is added in a 1 μL volume. Reactions are started by adding 50 μL of microsomes (1.25 mg/mL). The plates are mixed and after 15 min incubation on a heating block (25° C.), the reactions are stopped by the addition of 10 μL 60% PCA. An aliquot of 100 μL is then transferred to a filter plate pretreated with charcoal and the plate centrifuged at 4000 rpm for 1 minute. The flow through containing the ^3H2O released by the SCD1 desaturation reaction is added to scintillation fluid and the radioactivity measured in a Packard TopCount. The data is analysed to identify the IC50 for test compounds and reference compounds. […] The activity was defined in terms of % SCD enzyme activity remaining at the desired concentration of the test compound or as the IC50 concentration. The IC50 (affinity) of the example compounds toward the stearoyl-CoA desaturase is comprised between around […] and 0.0001 μM or between around 5 μM and 0.0001 μM or between around 1 μM and 0.0001 μM.

Row | melting point [°C] | pIC50 [1] | Compound
1 | 163 to 164 | 6.91 | CCN1CCN(c2nc(C)c(C(=O)NCc3cccnc3)s2)C1=O [Example 9.39, 2-(3-ethyl-2-oxoimidazolidin-1-yl)-4-methyl-N-(pyridin-3-ylmethyl)thiazole-5-carboxamide]
2 | 107 to 108 | 6.34 | Cc1nc(N2CCN(Cc3ccc(C(F)(F)F)cc3)C2=O)sc1Br [Example 45, 1-(5-bromo-4-methylthiazol-2-yl)-3-(4-(trifluoromethyl)benzyl)imidazolidin-2-one]
3 | 161 to 162 | 7.41 | O=C(NCc1cccnc1)c1sc(N2CCN(Cc3ccc(F)cc3)C2=O)nc1C(F)(F)F [Example 26.1, 2-(3-(4-fluorobenzyl)-2-oxoimidazolidin-1-yl)-N-(pyridin-3-ylmethyl)-4-(trifluoromethyl)thiazole-5-carboxamide]
4 | 118 to 120 | 7.21 | CCOC(=O)c1ccc(CN2CCN(c3nc(C)c(C(=O)NCc4ccccc4)s3)C2=O)cc1 [Example 23.2, ethyl 4-((3-(5-(benzylcarbamoyl)-4-methylthiazol-2-yl)-2-oxoimidazolidin-1-yl)methyl)benzoate]
5 | 163 to 164 | 6.82 | Cc1noc(-c2sc(N3CCN(Cc4ccc(C(F)(F)F)cc4)C3=O)nc2C)n1 [Example 44, 1-(4-methyl-5-(3-methyl-1,2,4-oxadiazol-5-yl)thiazol-2-yl)-3-(4-(trifluoromethyl)benzyl)imidazolidin-2-one]
6 | 58 to 61 | 6.57 | Cc1nc(N2CCN(Cc3ccccn3)C2=O)sc1C(=O)NCc1cccnc1 [Example 32.8, 4-methyl-2-(2-oxo-3-(pyridin-2-ylmethyl)imidazolidin-1-yl)-N-(pyridin-3-ylmethyl)thiazole-5-carboxamide]
7 | 153 to 154 | 5.91 | Cc1nc(N2CCN(Cc3ccc(C(F)(F)F)cc3)C2=O)sc1-c1ccno1 [Example 38.1, 1-(5-(isoxazol-5-yl)-4-methylthiazol-2-yl)-3-(4-(trifluoromethyl)benzyl)imidazolidin-2-one]
8 | 125 to 126 | 7.60 | Cc1nc(N2CCN(Cc3ccccc3)C2=N)sc1C(=O)NCc1ccccc1 [Example 27.3, N-benzyl-2-(3-benzyl-2-iminoimidazolidin-1-yl)-4-methylthiazole-5-carboxamide]
